# Results as given in ChEMBL document CHEMBL5104196, “Discovery of Novel, Potent, and Selective Small-Molecule Menin-Mixed Lineage Leukemia Interaction Inhibitors through Attempting Introduction of Hydrophilic Groups” (J Med Chem, 2022).
# The source made the active and inactive calls. The rule behind the calls is not given here.
# Assays:
# [1] = molecular target: Menin/Histone-lysine N-methyltransferase MLL (Homo sapiens, UniProt O00255); test: Inhibition of Menin/fluorescein labeled MLL(4 to 43 residues) (unknown origin) protein protein interaction incubated for 1 hr by fluorescence polarization-based competitive binding assay
# Sequence of Menin/Histone-lysine N-methyltransferase MLL (O00255 whole entry, the tested form may be a part): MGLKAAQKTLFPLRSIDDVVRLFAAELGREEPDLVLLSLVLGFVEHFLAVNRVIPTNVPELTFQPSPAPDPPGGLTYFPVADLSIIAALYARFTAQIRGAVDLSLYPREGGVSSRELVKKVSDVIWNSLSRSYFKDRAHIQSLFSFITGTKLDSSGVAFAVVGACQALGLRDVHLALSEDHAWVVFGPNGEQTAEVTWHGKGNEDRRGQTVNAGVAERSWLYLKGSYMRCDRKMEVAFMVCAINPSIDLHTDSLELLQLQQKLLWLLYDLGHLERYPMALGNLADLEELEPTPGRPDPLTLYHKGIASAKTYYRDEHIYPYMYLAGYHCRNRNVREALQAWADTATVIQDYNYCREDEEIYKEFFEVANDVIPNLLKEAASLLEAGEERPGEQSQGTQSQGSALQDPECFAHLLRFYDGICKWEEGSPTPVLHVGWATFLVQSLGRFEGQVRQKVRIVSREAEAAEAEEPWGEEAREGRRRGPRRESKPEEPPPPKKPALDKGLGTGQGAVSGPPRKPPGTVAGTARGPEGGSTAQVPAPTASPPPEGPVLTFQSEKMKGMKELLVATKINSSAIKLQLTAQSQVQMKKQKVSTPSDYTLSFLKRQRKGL
# Sequence of Menin/Histone-lysine N-methyltransferase MLL (Q03164 1-2718 partner limits assumed): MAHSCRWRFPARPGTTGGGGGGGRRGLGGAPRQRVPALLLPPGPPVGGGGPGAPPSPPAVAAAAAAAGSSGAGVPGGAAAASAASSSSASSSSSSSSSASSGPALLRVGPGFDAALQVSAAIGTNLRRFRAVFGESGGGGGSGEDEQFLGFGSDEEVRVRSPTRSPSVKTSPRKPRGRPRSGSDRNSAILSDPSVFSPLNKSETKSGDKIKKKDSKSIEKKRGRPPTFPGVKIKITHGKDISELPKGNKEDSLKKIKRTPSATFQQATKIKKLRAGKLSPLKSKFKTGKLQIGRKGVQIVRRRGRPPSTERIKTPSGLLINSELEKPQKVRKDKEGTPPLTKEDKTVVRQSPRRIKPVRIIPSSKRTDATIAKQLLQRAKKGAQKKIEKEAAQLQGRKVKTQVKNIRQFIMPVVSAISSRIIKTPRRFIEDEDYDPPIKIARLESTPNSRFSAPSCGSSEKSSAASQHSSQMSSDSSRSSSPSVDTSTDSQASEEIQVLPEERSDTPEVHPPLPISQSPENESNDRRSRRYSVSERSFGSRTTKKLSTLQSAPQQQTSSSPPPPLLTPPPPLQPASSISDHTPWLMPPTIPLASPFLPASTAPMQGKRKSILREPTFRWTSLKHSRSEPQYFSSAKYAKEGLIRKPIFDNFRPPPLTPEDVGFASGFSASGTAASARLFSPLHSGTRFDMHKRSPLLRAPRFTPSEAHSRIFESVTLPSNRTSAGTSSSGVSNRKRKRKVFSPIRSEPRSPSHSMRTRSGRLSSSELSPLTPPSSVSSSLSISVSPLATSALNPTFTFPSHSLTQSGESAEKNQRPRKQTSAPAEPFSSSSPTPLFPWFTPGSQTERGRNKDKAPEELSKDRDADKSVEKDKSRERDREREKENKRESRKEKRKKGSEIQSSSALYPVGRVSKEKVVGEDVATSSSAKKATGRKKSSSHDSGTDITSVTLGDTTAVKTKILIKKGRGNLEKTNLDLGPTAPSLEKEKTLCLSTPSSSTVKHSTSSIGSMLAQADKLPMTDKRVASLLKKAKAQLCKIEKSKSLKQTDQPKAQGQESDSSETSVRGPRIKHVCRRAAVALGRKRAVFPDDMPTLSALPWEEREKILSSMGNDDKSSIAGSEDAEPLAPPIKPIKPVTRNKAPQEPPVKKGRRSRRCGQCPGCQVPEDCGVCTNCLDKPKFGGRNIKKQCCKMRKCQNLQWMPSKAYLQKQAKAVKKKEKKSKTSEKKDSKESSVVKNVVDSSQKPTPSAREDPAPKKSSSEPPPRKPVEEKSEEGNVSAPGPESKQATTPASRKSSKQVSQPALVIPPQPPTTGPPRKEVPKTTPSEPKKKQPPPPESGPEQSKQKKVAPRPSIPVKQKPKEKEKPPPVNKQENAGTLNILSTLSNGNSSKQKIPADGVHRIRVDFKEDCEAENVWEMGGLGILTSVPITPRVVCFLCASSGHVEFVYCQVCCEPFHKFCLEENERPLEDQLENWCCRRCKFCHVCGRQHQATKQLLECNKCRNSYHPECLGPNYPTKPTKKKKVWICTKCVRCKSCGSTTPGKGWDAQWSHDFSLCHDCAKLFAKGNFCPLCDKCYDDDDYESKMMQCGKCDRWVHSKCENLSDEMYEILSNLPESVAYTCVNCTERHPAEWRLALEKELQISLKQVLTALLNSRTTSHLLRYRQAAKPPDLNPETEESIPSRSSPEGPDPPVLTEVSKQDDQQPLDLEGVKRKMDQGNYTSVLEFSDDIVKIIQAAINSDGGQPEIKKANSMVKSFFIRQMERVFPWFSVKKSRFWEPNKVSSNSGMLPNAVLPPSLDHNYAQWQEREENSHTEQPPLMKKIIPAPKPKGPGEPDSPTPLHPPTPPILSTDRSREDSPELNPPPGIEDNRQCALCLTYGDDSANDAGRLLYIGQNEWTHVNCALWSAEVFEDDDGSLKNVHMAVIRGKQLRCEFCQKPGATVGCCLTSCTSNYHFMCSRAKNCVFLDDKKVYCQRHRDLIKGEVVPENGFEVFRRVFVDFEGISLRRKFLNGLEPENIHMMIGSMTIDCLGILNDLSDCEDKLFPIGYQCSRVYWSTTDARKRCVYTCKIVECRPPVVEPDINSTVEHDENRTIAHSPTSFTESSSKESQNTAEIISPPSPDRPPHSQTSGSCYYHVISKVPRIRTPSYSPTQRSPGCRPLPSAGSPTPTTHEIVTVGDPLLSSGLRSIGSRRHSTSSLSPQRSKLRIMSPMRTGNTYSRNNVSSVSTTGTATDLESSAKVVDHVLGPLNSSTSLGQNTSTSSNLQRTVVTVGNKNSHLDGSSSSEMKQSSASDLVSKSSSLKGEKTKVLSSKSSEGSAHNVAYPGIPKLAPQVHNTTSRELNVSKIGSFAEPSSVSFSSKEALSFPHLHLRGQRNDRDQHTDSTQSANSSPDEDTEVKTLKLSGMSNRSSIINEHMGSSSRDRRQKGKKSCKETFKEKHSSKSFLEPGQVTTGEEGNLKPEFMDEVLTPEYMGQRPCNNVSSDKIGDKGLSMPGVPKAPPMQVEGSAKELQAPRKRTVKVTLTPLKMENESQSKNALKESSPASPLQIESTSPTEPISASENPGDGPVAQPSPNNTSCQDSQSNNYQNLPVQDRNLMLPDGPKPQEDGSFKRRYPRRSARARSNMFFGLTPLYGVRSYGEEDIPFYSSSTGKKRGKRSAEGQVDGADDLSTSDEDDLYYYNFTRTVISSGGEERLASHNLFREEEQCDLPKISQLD
# Sequence of Menin/Histone-lysine N-methyltransferase MLL (Q03164 2719-3969 partner limits assumed): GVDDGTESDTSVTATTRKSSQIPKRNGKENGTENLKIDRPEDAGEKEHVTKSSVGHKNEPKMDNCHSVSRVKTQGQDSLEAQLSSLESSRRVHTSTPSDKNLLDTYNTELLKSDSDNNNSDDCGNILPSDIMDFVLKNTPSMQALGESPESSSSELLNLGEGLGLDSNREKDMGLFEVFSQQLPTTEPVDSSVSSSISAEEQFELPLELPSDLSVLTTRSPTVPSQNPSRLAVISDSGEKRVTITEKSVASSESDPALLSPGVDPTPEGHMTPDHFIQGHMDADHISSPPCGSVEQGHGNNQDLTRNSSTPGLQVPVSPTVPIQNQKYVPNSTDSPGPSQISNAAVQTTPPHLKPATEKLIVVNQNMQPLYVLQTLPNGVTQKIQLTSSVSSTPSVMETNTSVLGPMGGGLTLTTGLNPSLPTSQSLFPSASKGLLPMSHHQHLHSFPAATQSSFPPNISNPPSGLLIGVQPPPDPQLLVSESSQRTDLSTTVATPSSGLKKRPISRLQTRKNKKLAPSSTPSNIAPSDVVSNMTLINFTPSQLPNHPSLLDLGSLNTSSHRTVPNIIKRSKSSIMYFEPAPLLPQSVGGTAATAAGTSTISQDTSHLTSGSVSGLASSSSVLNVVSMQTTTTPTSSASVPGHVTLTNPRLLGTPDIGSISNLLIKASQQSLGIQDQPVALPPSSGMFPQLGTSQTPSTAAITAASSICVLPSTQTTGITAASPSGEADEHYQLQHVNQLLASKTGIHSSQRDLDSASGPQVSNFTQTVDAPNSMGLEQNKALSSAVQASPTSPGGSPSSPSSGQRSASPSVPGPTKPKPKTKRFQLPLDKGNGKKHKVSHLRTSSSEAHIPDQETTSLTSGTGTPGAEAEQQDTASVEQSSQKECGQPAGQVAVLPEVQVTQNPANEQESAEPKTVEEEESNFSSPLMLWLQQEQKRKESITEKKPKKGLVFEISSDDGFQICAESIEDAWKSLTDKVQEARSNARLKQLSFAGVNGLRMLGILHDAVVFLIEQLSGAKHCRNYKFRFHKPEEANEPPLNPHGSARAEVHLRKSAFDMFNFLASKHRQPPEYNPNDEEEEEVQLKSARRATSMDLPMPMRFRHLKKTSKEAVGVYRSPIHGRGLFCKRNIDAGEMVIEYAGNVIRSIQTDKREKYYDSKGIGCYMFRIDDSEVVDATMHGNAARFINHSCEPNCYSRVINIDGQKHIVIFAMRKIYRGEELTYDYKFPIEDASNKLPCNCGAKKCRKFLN
# MV4-11 [2] = test: Antiproliferative activity against human MV4-11 cells harboring MLL-AF4 assessed as cell growth inhibition measured for 72 hrs by MTT assay; type: functional, cell-based; details: MV4-11, 72 h
# HL-60 = test: Antiproliferative activity against human […] assessed as cell growth inhibition measured for 72 hrs by MTT assay; type: functional, cell-based; details: HL-60, 72 h
# MV4-11 [3] = test: Antiproliferative activity against human MV4-11 cells assessed as reduction in cell viability measured for 3 days by cell counting assay; type: functional, cell-based; details: MV4-11, 72 h
# MV4-11 [4] = test: Antiproliferative activity against human MV4-11 cells assessed as reduction in cell viability measured for 3 days followed by replacement with fresh medium of compound and measured after 72 hrs by cell counting assay; type: functional, cell-based; details: MV4-11, 72 h
# MV4-11 [5] = test: Induction of cell differentiation in human MV4-11 cells assessed as increase in CD11b expression at 10 uM measured after 7 days by flow cytometric analysis; type: functional, cell-based; details: time 7.0 day
# MV4-11 [6] = test: Reversible differentiation arrest in human MV4-11 cells at 0.1 to 10 uM measured after 7 days by flow cytometric analysis; type: functional, cell-based; details: dose 0.1-10 µM, time 7.0 day
# MV4-11 [7] = test: Induction of apoptosis in human MV4-11 cells incubated for 24 hrs by annexinV/PI staining based flow cytometry analysis; type: functional, cell-based; details: dose 0.1-10 µM, DDE = dose-dependent effect
# [8] = Solubility of compound in phosphate buffer at pH 7.4 by spectrophotometric analysis; type: physicochemical
SMILES,IC50 [1] [µM],IC50 (MV4-11 [2]) [µM],IC50 (HL-60) [µM],IC50 (MV4-11 [3]) [µM],IC50 (MV4-11 [4]) [µM],Activity (MV4-11 [5]),Activity (MV4-11 [6]),Activity (MV4-11 [7]),solubility [8] [µg/mL]
COC(CNc1ccc2ncnc(NC3CCN(CC4CN(c5ccc(C#N)cc5)C4)CC3)c2n1)OC,> 10,> 10,> 10,,,,,,
CN(C)C1CCN(c2ccc3ncnc(NC4CCN(CC5CN(c6ccc(C#N)cc6)C5)CC4)c3n2)CC1,0.13,9.8,10.2,,,,,,
CN1CCN(c2ccc3ncnc(NC4CCN(CC5CN(c6ccc(C#N)cc6)C5)CC4)c3n2)CC1,0.07,5.6,10,,,,,,
N#Cc1ccc(N2CC(CN3CCC(Nc4ncnc5cnc(NC6CCCC6)cc45)CC3)C2)cc1,0.06,> 10,> 10,,,,,,
CCCc1cc2c(N3CCN(C4=NCC(C)(C)S4)CC3)ncnc2s1,,9.2,> 10,8.52,7.62,Active,Active,Dde,
CN1CCN(c2cc3c(NC4CCN(CC5CN(c6ccc(C#N)cc6)C5)CC4)ncnc3cn2)CC1,> 10,6.7,> 10,,,,,,
O=S(=O)(c1ccc(N2CC(CN3CCC(Nc4ncnc5ccc(Cl)nc45)CC3)C2)cc1)c1ccccn1,0.06,2.5,> 10,,,,,,
O=S(=O)(c1ccncc1)c1ccc(N2CC(CN3CCC(Nc4ncnc5ccc(Cl)nc45)CC3)C2)cc1,0.03,2,8.8,,,,,,10
N#Cc1ccc(N2CC(CN3CCC(Nc4ncnc5cnc(N6CCCCC6)cc45)CC3)C2)cc1,0.59,> 10,> 10,,,,,,
N#Cc1ccc(N2CC(CN3CCC(Nc4ncnc5ccc(Br)cc45)CC3)C2)cc1,> 10,> 10,> 10,,,,,,
CN(C)C1CCN(c2cc3c(NC4CCN(CC5CN(c6ccc(C#N)cc6)C5)CC4)ncnc3cn2)CC1,> 10,3,> 10,,,,,,
CN(C)CCOc1ccc2ncnc(NC3CCN(CC4CN(c5ccc(C#N)cc5)C4)CC3)c2n1,0.06,1.5,> 10,,,,,,314
CN(C)CCN(C)c1ccc2ncnc(NC3CCN(CC4CN(c5ccc(C#N)cc5)C4)CC3)c2n1,0.26,3.2,> 10,,,,,,
N#Cc1ccc(N2CC(CN3CCC(Nc4ncnc5ccc(N6CCNCC6)nc45)CC3)C2)cc1,0.18,2.2,> 10,,,,,,
N#Cc1ccc(N2CC(CN3CCC(Nc4ncnc5cnc(N6CCOCC6)cc45)CC3)C2)cc1,> 10,> 10,> 10,,,,,,
O=S(=O)(c1ccncc1)c1ccc(N2CC(CN3CCC(Nc4ncnc5cnc(Cl)cc45)CC3)C2)cc1,> 10,9,> 10,,,,,,
CCN(CC)CCNc1ccc2ncnc(NC3CCN(CC4CN(c5ccc(C#N)cc5)C4)CC3)c2n1,0.82,4.2,9.5,,,,,,
N#Cc1ccc(N2CC(CN3CCC(Nc4ncnc5cnc(NCC6CC6)cc45)CC3)C2)cc1,> 10,> 10,> 10,,,,,,
N#Cc1ccc(N2CC(CN3CCC(Nc4ncnc5ccc(OCC(F)(F)F)nc45)CC3)C2)cc1,> 10,5.6,> 10,,,,,,

SMILES,IC50 [1] [µM],IC50 (MV4-11 [2]) [µM],IC50 (HL-60) [µM],IC50 (MV4-11 [3]) [µM],IC50 (MV4-11 [4]) [µM],Activity (MV4-11 [5]),Activity (MV4-11 [6]),Activity (MV4-11 [7]),solubility [8] [µg/mL]
N#Cc1ccc(N2CC(CN3CCC(Nc4ncnc5cnc(Cl)cc45)CC3)C2)cc1,> 10,> 10,> 10,,,,,,
CC(C)(C)OC(=O)N1CC(S(=O)(=O)c2ccc(N3CC(CN4CCC(Nc5ncnc6cnc(Cl)cc56)CC4)C3)cc2)C1,> 10,> 10,> 10,,,,,,
CC(C)(C)OC(=O)N1CC(S(=O)(=O)c2ccc(N3CC(CN4CCC(Nc5ncnc6ccc(Cl)nc56)CC4)C3)cc2)C1,0.12,2.3,> 10,,,,,,< 0.6
N#Cc1ccc(N2CC(CN3CCC(Nc4ncnc5cnc(OCC(F)(F)F)cc45)CC3)C2)cc1,0.69,> 10,> 10,,,,,,
N#Cc1ccc(N2CC(CN3CCC(Nc4ncnc5cnc(N6CCCC6)cc45)CC3)C2)cc1,> 10,6.5,> 10,,,,,,
N#Cc1ccc(N2CC(CN3CCC(Nc4ncnc5ccc(CC(F)(F)F)cc45)CC3)C2)cc1,> 10,> 10,> 10,,,,,,
CN(C)CCN(C)C1CCN(c2cc3c(NC4CCN(CC5CN(c6ccc(C#N)cc6)C5)CC4)ncnc3cn2)CC1,0.29,3.5,> 10,,,,,,
N#Cc1ccc(N2CC(CN3CCC(Nc4ncnc5ccc(NCCN)nc45)CC3)C2)cc1,0.68,9.8,> 10,,,,,,
CC(C)Nc1cc2c(NC3CCN(CC4CN(c5ccc(C#N)cc5)C4)CC3)ncnc2cn1,0.53,> 10,> 10,,,,,,
N#Cc1ccc(N2CC(CN3CCC(Nc4ncnc5ccc(Cl)nc45)CC3)C2)cc1,> 10,> 10,> 10,,,,,,< 0.4
CN(C)CCNc1ccc2ncnc(NC3CCN(CC4CN(c5ccc(C#N)cc5)C4)CC3)c2n1,0.97,4.4,> 10,,,,,,
CC(C)CNc1cc2c(NC3CCN(CC4CN(c5ccc(C#N)cc5)C4)CC3)ncnc2cn1,1.97,> 10,> 10,,,,,,
N#Cc1ccc(N2CC(CN3CCC(Nc4ncnc5ccc(NCCO)nc45)CC3)C2)cc1,> 10,> 10,> 10,,,,,,
O=S(=O)(c1ccc(N2CC(CN3CCC(Nc4ncnc5ccc(Cl)nc45)CC3)C2)cc1)C1CC1,0.09,6.6,> 10,,,,,,15.9
CN(C)CCOc1ccc2ncnc(NC3CCN(CC4CN(c5ccc(S(=O)(=O)C6CN(C(=O)OC(C)(C)C)C6)cc5)C4)CC3)c2n1,0.19,2,> 10,,,,,,69.5
N#Cc1ccc(N2CC(CN3CCC(Nc4ncnc5cnc(NC6CC6)cc45)CC3)C2)cc1,> 10,> 10,> 10,,,,,,
CN(C)CCOc1ccc2ncnc(NC3CCN(CC4CN(c5ccc(S(=O)(=O)c6ccncc6)cc5)C4)CC3)c2n1,0.01,1.5,> 10,,,,,,153
CCNCCNc1ccc2ncnc(NC3CCN(CC4CN(c5ccc(C#N)cc5)C4)CC3)c2n1,> 10,> 10,> 10,,,,,,
